Laboratory results taken from article PMC7155420 (2020).

Tests used:
[1] = test system: r(CGGx6); GGx6 (RNA, repeat) GGAGAGGGUUUAAUCGGCGGCGGCGGCGGCGGUACGAAAGUACGGCGGCGGCGGCGGCGGAUUGGAUCCGCAAGG; assay: ITC, two-mode fit; settings: K+ (10 mM potassium phosphate); 298 K; highest-affinity site
[2] = test system: r(CGGx1); GGx1; (5'CGG/3'GCC) x 1 in Table S1 (RNA, mismatch bulge abasic) GGAGAGGGUUUAAUCGGUACGAAAGUACGGAUUGGAUCCGCAAGG; assay: CD melting, 267 nm; settings: K+ (50 mM KCl, 10 mM potassium phosphate); 10 µM RNA; drug/nucleic acid ratio up to 2.0; 1 °C/min; per base
[3] = test system: r(CGGx6); GGx6 (RNA, repeat) GGAGAGGGUUUAAUCGGCGGCGGCGGCGGCGGUACGAAAGUACGGCGGCGGCGGCGGCGGAUUGGAUCCGCAAGG; assay: CD melting, 267 nm; settings: K+ (50 mM KCl, 10 mM potassium phosphate); 10 µM RNA; drug/nucleic acid ratio up to 2.0; 1 °C/min; per base
[4] = test system: r(CGGx1); GGx1; (5'CGG/3'GCC) x 1 in Table S1 (RNA, mismatch bulge abasic) GGAGAGGGUUUAAUCGGUACGAAAGUACGGAUUGGAUCCGCAAGG; assay: fluorescence titration (curcumin fluorescence), two-mode fit; settings: 50 mM KCl (general buffer); 10 mM phosphate, pH 7.0, 25 °C; stronger of two sites
[5] = test system: r(CGGx6); GGx6 (RNA, repeat) GGAGAGGGUUUAAUCGGCGGCGGCGGCGGCGGUACGAAAGUACGGCGGCGGCGGCGGCGGAUUGGAUCCGCAAGG; assay: as above; settings: 50 mM KCl (general buffer); 10 mM phosphate, pH 7.0, 25 °C; stronger of two sites

Ka [1]: 1.7 × 10^6 M^–1
ΔTm [2]: 1.49 °C
ΔTm [3]: 3.48 °C
Kd1 [4]: 0.12 ± 0.02 µM
Kd1 [5]: 0.092 ± 0.004 µM
SMILES: COc1cc(/C=C/C(=O)CC(=O)/C=C/c2ccc(O)c(OC)c2)ccc1O
